Patent publication US20120302609A1, “Pyrazolines for the Modulation of PKM2” (Dynamix Pharmaceuticals LTD., priority 2011, published 2012)

Assays:
PKM2, human recombinant = target: T1, PKM2, human recombinant (Homo sapiens, UniProt P14618); assay: PKM2 enzymatic activity assay (Kinase-Glo Plus luminescence); type: biochemical; conditions: for AC50: 0.1 nM PKM2, 0.1 mM ADP, 0.5 mM PEP, 1 hour, room temperature, read-out: AC50 group; for Emax: 1 h, read-out: Max activity Group; for Emax / Max activity Group: maximum percent activity, luminescence without compound = 0% activity;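 for Max activity Group: percent increase over no-compound signal after subtracting the no-PKM2 background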
T1 construct: purchased BPS 50295
T1 sequence (P14618 whole entry): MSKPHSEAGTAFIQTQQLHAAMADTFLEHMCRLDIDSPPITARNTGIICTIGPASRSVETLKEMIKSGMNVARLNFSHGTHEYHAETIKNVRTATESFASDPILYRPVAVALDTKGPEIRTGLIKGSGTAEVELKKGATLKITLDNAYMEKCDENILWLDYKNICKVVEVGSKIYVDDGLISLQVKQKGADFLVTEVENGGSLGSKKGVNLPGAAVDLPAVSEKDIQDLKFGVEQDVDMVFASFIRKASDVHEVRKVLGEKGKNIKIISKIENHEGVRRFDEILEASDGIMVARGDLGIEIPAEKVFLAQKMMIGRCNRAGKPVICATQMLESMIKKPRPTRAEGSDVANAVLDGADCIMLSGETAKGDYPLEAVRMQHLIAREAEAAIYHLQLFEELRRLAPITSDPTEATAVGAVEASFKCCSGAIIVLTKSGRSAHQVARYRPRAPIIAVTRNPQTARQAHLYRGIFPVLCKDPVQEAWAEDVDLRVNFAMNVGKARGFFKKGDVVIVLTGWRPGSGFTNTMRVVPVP
Method: PKM2 performs the following enzymatic reaction, where the PKM2 substrates, PEP (phosphoenolpyruvate) and ADP, are converted to pyruvate and ATP as follows:
All of the enzymatic reactions were conducted in duplicates at room temperature for 1 hour in a 50 μL mixture containing: • PKM2 assay buffer (50 mM Imidazole, pH 7.2; 7 mM MgCl2; 50 mM KCl; 0.01% Tween; • and 0.05% BSA), 0.1 mM ADP, 0.5 mM PEP, 0.1 nM PKM2 enzyme (PKM2, human recombinant (BPS catalog number 50295)) and the indicated test compound. Fructose 1,6 biphosphat e, (FBP (Sigma)) was used as a positive control for activation at concentration of 0.5 mM. After enzymatic reactions, 50 μL of Kinase-Glo® Plus reagent (Promega kit) was added to each well and luminescence was measured using a BioTek Synergy™ 2 microplate reader.
PKM2 activity assays were performed in duplicates at each concentration. The luminescence data were analyzed using the computer software, GraphPad PRISM®. In the absence of the compound, the luminescence was defined as 0% activity. The percent activity in the presence of each compound was calculated according to the following equation:
% Activity=[(L−Lb)/(Lt−Lb)−1]×100%
where L=the luminescence in the presence of the test compound, Lb=the luminescence in the absence of PKM2, and Lt=the luminescence intensity in the absence of the test compound. The % activity values versus a series of compound concentrations were plotted using non-linear regression analysis of Sigmoidal dose-response curve generated with the equation Y=B+(T−B)/1+10^((LogEC50-X)×Hill Slope), where Y=percent activity, B=minimum percent activity, T=maximum percent activity, X=logarithm of compound and Hill Slope=slope factor or Hill coefficient. The AC50 values, shown in Table 2 were determined for the indicated test compounds as the concentration causing a half-maximal percent activity.

H1299 (lung) = assay: Cell proliferation assay (CellTiter-Glo Luminescent); type: cell-based, human; conditions: 96 hr
Method: 1. Cells were grown according to the ATCC conditions. 2. Cell feeding (passaging) was timed such that the cells were in exponential growth phase at the time of the assay.
3. On day 1, H1299 cells were counted. Cell numbers were adjusted to the desired cell concentration in Media 1: RPMI 1640 Invitrogen 11879020 (that contained no glucose or pyruvate) with 10% FBS, and 1 mM D-Glucose (4 μl of 2.5 M D-glucose G8769 was added in preparing 10 ml RPMI media with 1 mM glucose). A 200 μl of H1299 cell suspension was added to appropriate wells in the 96-well plates, and incubated at 37° C. in the CO2 cell incubator under normal growing conditions for overnight. 4. On day 2, a 100 mM stock concentration of test compounds in 100% DMSO was prepared and serially diluted with 100% DMSO to 33.33 mM, 11.11 mM, and 3.7 mM. A 1:1000 dilution was made to each concentration in media 1 (yielding 0.1% final DMSO concentration). The media was aspirated completely from the cell plate. Each 100 μl of the following solutions (100 μM, 33.33 μM, 11.11 μM, and 3.7 μM) was added to the cells. DMSO in a final concentration of 0.1%, and media without DMSO, were added to the cells and used as a negative control. Empty wells around the experimental wells were filled with PBS. The plate was sealed with parafilm to reduce evaporation. 5. The plate was incubated under normal conditions (5% CO2, and 95% air), for 96 hours at 37° C. 6. On day 6 (after 96 hr incubation), the plate was equilibrated to room temperature for approximately 30 minutes. A 100 μl of CellTiter-Glo Reagent was added in each well of the plate. Contents were mixed for 2 minutes on an orbital shaker to induce cell lysis. The plate was incubated at room temperature for 10 minutes to stabilize luminescent signal. Luminescence was recorded with Flexstation 3.
Unless noted otherwise, proliferation of control or compound treated H1299 cells was measured using CellTiter-Glo Luminescent assay following 96 hr incubation of the cells with and without test compounds. The AC50 values, shown in Table 3, were coded according to follows: A: <3 μM; B: 3-10 μM; C: 10-20 μM; or D: >20 μM.

786-O (kidney) = assay: as above; type: cell-based; conditions: Homo sapiens, 786-0, 1 mM glucose, 96 hr
[1] = Homo sapiens, NCI-H1299, 1 mM glucose

Row | AC50 (PKM2, human recombinant) | Emax (PKM2, human recombinant) | Max activity Group (PKM2, human recombinant) | Structure (SMILES) | AC50 (H1299 (lung); [1]) | AC50 (786-O (kidney)) | AC50 (H1299 (lung); 1 mM glucose) | AC50 (H1299 (lung); Complete media)
1 | ≤ 1 µM | – | – | CC(=O)N1N=C(c2ccc(NS(=O)(=O)c3ccc(F)cc3)cc2)CC1c1ccc(F)cc1 (single isomer, unassigned) [Compound 36A] | > 20 µM | 3 to 10 µM | – | –
2 | ≤ 1 µM | – | C (C: ≦130%) | COc1ccc(C2CC(c3ccc(NS(=O)(=O)c4ccc(OC)cc4)cc3)=NN2C(C)=O)cc1 (single isomer, unassigned) [Compound 39A] | > 20 µM | – | – | –
3 | ≤ 1 µM | – | A (A: ≧200%) | COc1ccc(C2CC(c3ccc(NS(=O)(=O)c4ccc(OC)cc4)cc3)=NN2C(C)=O)cc1 (single isomer, unassigned) [Compound 40A] | – | – | > 20 µM | > 20 µM
4 | ≤ 1 µM | 130 to 200% | – | COc1ccc(C2CC(c3ccc(NS(=O)(=O)c4cccc(F)c4)cc3)=NN2C(C)=O)cc1 (stereo not shown) [Compound 33A, N-(4-(1-Acetyl-5-(4-methoxyphenyl)-4,5-dihydro-1H-pyrazol-3-yl)phenyl)-3-fluoro benzenesulfonamide] | > 20 µM | – | – | –
5 | ≤ 1 µM | ≤ 130% | – | COc1ccc(S(=O)(=O)Nc2ccc(C3=NN(C(C)=O)C(c4ccc(F)cc4)C3)cc2)cc1 (stereo not shown) [Compound 45A] | > 20 µM | 3 to 10 µM | – | –

More lines, now with the values behind:

Row | Structure (SMILES) | AC50 (PKM2, human recombinant) | Emax (PKM2, human recombinant) | Max activity Group (PKM2, human recombinant) | AC50 (H1299 (lung); [1]) | AC50 (786-O (kidney)) | AC50 (H1299 (lung); 1 mM glucose) | AC50 (H1299 (lung); Complete media)
6 | COc1ccc(C2CC(c3ccc(NS(=O)(=O)c4cccc(OC)c4)cc3)=NN2C(C)=O)cc1 (racemic) [Compound 18A, N-(4-(1-Acetyl-5-(4-methoxyphenyl)-4,5-dihydro-1H-pyrazol-3-yl)phenyl)-3-methoxy benzenesulfonamide] | ≤ 1 µM | 130 to 200% | – | > 20 µM | – | – | –
7 | COc1ccc(C2CC(c3ccc(NS(=O)(=O)c4ccc(Cl)cc4)cc3)=NN2C(C)=O)cc1 (racemic) [Compound 26A, N-(4-(1-Acetyl-5-(4-methoxyphenyl)-4,5-dihydro-1H-pyrazol-3-yl)phenyl)-4-chloro benzenesulfonamide] | ≤ 1 µM | ≤ 130% | – | > 20 µM | 3 to 10 µM | – | –
8 | COc1ccc(C2CC(c3ccc(NS(=O)(=O)c4cccc(OC)c4)cc3)=NN2C(C)=O)cc1 (single isomer, unassigned) [Compound 29A] | – | – | – | > 20 µM | – | – | –
9 | COc1ccc(C2CC(c3ccc(NS(=O)(=O)c4ccc(Cl)cc4)cc3)=NN2C(C)=O)cc1 (single isomer, unassigned) [Compound 37A] | – | – | – | > 20 µM | – | – | –
10 | COc1ccc(C2CC(c3ccc(NS(=O)(=O)c4ccc(Cl)cc4)cc3)=NN2C(C)=O)cc1 (single isomer, unassigned) [Compound 38A] | – | – | – | – | – | > 20 µM | –
11 | COc1ccc(C2CC(c3ccc(NS(=O)(=O)c4ccc(C(F)(F)F)cc4)cc3)=NN2C(C)=O)cc1 (stereo not shown) [Compound 21A, N-(4-(1-Acetyl-5-(4-methoxyphenyl)-4,5-dihydro-1H-pyrazol-3-yl)phenyl)-4-(trifluoromethyl)benzenesulfonamide] | ≤ 1 µM | 130 to 200% | – | 10 to 20 µM | 3 to 10 µM | – | –
12 | COc1ccc(C2CC(c3ccc(NS(=O)(=O)c4ccc(F)cc4)cc3)=NN2C(C)=O)cc1Cl (stereo not shown) [Compound 32A, N-(4-(1-Acetyl-5-(3-chloro-4-methoxyphenyl)-4,5-dihydro-1H-pyrazol-3-yl)phenyl)-4-fluorobenzenesulfonamide] | – | – | – | > 20 µM | 3 to 10 µM | – | –
13 | COc1ccc(C2CC(c3ccc(NS(=O)(=O)c4cccc(C(F)(F)F)c4)cc3)=NN2C(C)=O)cc1 (stereo not shown) [Compound 34A, N-(4-(1-Acetyl-5-(4-methoxyphenyl)-4,5-dihydro-1H-pyrazol-3-yl)phenyl)-3-(trifluoromethyl)benzenesulfonamide] | – | – | – | > 20 µM | 3 to 10 µM | – | –
14 | CC(=O)N1N=C(c2ccc(NS(=O)(=O)c3ccc(F)cc3)cc2)C[C@@H]1c1ccc(C)cc1 [Compound 41A, (R)—N-(4-(1-Acetyl-5-(p-tolyl)-4,5-dihydro-1H-pyrazol-3-yl)phenyl)-4-fluorobenzene sulfonamide] | – | – | – | 10 to 20 µM | 3 to 10 µM | – | –
15 | COc1cccc([C@H]2CC(c3ccc(NS(=O)(=O)c4ccc(F)cc4)cc3)=NN2C(C)=O)c1 [Compound 42A, (R)—N-(4-(1-Acetyl-5-(3-methoxyphenyl)-4,5-dihydro-1H-pyrazol-3-yl)phenyl)-4-fluoro benzenesulfonamide] | – | – | – | – | 10 to 20 µM | – | –
16 | COc1ccccc1C1CC(c2ccc(NS(=O)(=O)c3ccc(F)cc3)cc2)=NN1C(C)=O (stereo not shown) [Compound 47A, N-(4-(1-Acetyl-5-(2-methoxyphenyl)-4,5-dihydro-1H-pyrazol-3-yl)phenyl)-4-fluoro benzenesulfonamide] | – | – | – | > 20 µM | 3 to 10 µM | – | –
